Reference: US8415469B2, “Compounds and methods for kinase modulation, and indications therefor” (Plexxikon Inc., priority 2005, dated 2013)
Values belong to the compound of their own block, whether it stands above or below them.

Key:
Format in all cases: biochemical
MAP4K4 = MAP4K4 (Homo sapiens, UniProt O95819); experiment: AlphaScreen kinase assay, MAP4K4; conditions: read-out: IC50, activity toward kinase MAP4K4
Csk = Csk (Homo sapiens, UniProt P41240); experiment: AlphaScreen kinase assay, Csk; conditions: read-out: IC50, activity toward kinase Csk
Source text: (§1) AlphaScreen assay was used to screen additional kinases. The assay is similarly dependent on the phosphorylation of a peptide substrate. In this assay, an antibody that recognizes phosphorylated substrate is bound to an acceptor bead. The peptide substrate is attached to biotin, which binds to a donor head that contains streptavidin. Thus phosphorylated substrate is bound by antibody and streptavidin, bringing the donor and acceptor heads into close proximity when kinase is not inhibited. The donor produces singlet oxygen which results in emission from the acceptor when they are in close proximity. Conversely, when kinase is inhibited, the donor and acceptor beads are not associated and the emission from the acceptor is reduced.
(§2) AlphaScreen assays were done using compounds dissolved in DMSO to a concentration of 20 mM. The compounds were diluted accordingly to the desired final concentrations in each sample well, using 1:3 serial dilution for a total of 8 concentration points.

Brk = Brk (Homo sapiens, UniProt Q13882); experiment: AlphaScreen kinase assay, Brk; conditions: read-out: IC50, activity toward kinase Brk
Chain of Brk (Q13882 whole entry): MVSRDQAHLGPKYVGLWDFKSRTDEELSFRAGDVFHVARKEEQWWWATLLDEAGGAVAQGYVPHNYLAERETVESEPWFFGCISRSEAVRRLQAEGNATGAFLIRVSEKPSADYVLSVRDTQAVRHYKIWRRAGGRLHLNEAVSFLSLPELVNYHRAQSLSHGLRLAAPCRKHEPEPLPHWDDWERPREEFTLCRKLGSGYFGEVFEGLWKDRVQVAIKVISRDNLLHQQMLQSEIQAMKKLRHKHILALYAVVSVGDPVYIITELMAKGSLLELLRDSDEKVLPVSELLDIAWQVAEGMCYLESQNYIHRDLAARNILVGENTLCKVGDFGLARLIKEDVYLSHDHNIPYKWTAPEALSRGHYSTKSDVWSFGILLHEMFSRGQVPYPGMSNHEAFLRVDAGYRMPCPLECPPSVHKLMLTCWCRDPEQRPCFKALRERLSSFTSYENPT
Outline: (§3)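 Biotinylated peptide substrate is phosphorylated by kinase; anti-phosphopeptide antibody on acceptor beads and streptavidin donor beads bring emission when substrate is phosphorylated. Inhibition lowers acceptor signal. Compounds from 20 mM DMSO stock tested as 8-point 1:3 serial dilutions.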

Plk1 = Plk1 (Homo sapiens, UniProt P53350); experiment: AlphaScreen kinase assay, Plk1; conditions: read-out: IC50, activity toward kinase Plk1
Chain of Plk1 (P53350 whole entry): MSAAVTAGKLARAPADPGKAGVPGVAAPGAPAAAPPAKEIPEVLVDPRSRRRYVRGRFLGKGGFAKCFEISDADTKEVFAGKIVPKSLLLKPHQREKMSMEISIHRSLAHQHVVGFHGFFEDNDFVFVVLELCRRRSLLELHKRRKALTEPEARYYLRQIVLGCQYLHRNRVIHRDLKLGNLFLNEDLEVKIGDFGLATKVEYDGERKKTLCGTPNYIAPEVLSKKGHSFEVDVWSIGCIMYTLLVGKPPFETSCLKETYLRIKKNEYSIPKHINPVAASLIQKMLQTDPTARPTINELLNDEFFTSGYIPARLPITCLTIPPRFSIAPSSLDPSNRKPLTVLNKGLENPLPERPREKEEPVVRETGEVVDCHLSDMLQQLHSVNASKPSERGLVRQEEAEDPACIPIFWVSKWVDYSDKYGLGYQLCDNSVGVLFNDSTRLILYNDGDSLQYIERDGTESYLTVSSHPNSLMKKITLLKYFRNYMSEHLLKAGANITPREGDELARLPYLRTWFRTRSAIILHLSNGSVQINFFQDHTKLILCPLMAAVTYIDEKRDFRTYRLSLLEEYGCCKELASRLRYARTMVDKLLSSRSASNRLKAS
Outline: as §3

Erk2 = molecular target: T1, Erk2 (Homo sapiens, UniProt P28482); experiment: AlphaScreen kinase assay, Erk2; conditions: read-out: IC50, activity toward kinase Erk2
T1 construct: P4227.pET15S ERK2/MEK1DD; His6 with thrombin site (N); made in house
T1 sequence (P28482 with tags, fused parts or gaps): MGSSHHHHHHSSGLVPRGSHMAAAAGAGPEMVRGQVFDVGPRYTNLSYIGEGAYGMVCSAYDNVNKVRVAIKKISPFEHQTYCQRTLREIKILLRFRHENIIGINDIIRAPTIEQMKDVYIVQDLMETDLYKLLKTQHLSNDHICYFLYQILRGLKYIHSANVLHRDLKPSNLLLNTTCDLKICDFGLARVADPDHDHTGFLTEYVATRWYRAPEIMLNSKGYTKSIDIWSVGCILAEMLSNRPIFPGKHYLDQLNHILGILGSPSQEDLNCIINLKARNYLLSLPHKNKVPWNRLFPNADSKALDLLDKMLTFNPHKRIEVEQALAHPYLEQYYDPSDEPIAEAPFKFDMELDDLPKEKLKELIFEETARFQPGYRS
Source text: as §1, §2

Flt3 = molecular target: T2, Flt3 (Homo sapiens, UniProt P36888); experiment: Z'-Lyte FRET kinase assay (Invitrogen), Flt3; conditions: read-out: IC50, activity toward kinase Flt3
T2 construct: purchased Invitrogen (assay run by Invitrogen)
T2 sequence (P36888 27-993): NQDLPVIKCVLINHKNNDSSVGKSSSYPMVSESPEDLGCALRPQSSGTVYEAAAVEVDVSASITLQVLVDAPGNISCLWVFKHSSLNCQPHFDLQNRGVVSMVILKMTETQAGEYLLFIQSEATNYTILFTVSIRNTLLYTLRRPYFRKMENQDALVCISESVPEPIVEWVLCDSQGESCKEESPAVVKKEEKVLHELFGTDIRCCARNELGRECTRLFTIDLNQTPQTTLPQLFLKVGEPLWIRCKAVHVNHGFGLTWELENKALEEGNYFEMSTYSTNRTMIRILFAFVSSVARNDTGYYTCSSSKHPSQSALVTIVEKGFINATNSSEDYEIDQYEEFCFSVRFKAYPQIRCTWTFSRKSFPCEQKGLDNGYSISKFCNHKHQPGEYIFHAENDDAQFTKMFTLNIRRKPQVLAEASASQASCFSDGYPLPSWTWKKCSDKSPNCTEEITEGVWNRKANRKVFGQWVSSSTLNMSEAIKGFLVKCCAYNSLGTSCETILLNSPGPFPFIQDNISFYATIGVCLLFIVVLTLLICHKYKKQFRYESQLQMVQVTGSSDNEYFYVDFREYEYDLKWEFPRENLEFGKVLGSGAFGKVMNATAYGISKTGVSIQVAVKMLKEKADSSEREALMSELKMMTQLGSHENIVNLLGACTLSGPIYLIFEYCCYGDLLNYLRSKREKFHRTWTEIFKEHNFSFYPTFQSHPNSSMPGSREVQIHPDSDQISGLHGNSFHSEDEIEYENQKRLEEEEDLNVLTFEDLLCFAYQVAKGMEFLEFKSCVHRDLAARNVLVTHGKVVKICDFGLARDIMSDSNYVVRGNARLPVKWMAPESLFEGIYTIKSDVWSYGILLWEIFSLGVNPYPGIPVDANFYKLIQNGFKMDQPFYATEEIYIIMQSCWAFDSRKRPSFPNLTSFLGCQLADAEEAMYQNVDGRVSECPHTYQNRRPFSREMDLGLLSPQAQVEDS
Source text: The effect of potential modulators of kinase activity can be measured in a variety of different assays known in the art. For example, direct radiometric, indirect FRET or AlphaScreen assays may be used to assess the level of phosphorylation of a substrate in the presence of test compounds in order to determine the inhibitory affect of the compound on the kinase. Invitrogen (Carlsbad, Calif.) uses a FRET based assay for Btk, EGFR, EphB2, Flt3, lrak4, Kdr, MAP2K1, MAPKAPK2, PDGFRB, PKC theta, Stk6 and Yes. For these assays, compounds of the invention were screened by Invitrogen using Z′-Lyte™ kinase assay.
Briefly, the Invitrogen kinase assay involves use of a specific peptide substrate optimized for each kinase, containing a fluorophore at each end that make up the FRET pair. The peptide sensitivity to proteolytic cleavage depends on phosphorylation of the peptide. Non-phosphorylated peptide is cleaved by a protease while peptide phosphorylated by the kinase is not cleaved. Cleavage of the peptide disrupts the FRET between the donor (coumarin) and acceptor (fluorescein) fluorophores, resulting in an increase in the ratio of donor emission to acceptor emission. The emission ratio of coumarin to fluorescein is used to assess the reaction progress. The extent of phosphorylation is determined from the emission ratio, which is low when the kinase is active (phosphorylated peptide is not cleaved, FRET pair connected) or higher for inhibited kinase (non-phosphorylated peptide is cleaved, FRET pair separated). Thus, the assay involves a kinase reaction in the presence of varying concentrations of a given compound, a development reaction with site specific protease, and detection of the fluorescent emission ratio of coumarin and fluorscein. […] Reaction conditions for each kinase are determined to provide optimal reaction times, incubation temperature, kinase and ATP concentrations. Test samples are made up in 1× kinase buffer (50 mM HEPES pH 7.5, 50 mM MgCl2, 5 mM EGTA, 0.05% BRIJ-35) and compound at desired concentration prepared in DMSO such that the final DMSO is 1%. […] Typically, assay plates are prepared to 10 μl final volume per sample, adding 2.5 μl of compound at 4× the desired concentration in 4% DMSO (serial dilution of compound provides concentration curve), 5 μl of the desired kinase mixed with Z′-LYTE™ peptide substrate (2× in 2× kinase buffer, final peptide at 2 μM), and 2.5 μl of 4×ATP solution. All kinase except for MAP2K1 were at 10 μM ATP in the kinase reaction, while MAP2K1 was at 100 μM. Samples are mixed and the kinase reaction is incubated 1 hour at room temperature, after which 5 μl of development solution is added and mixed. After incubation for another 1 hour at room temperature, 5 μl of stop reagent is added to each sample and mixed. The fluorescence signals are measured to determine the emission ratio.

ALK = ALK (Homo sapiens, UniProt Q9UM73); experiment: AlphaScreen kinase assay, ALK; conditions: read-out: IC50, activity toward kinase ALK
Chain of ALK (Q9UM73 19-1620): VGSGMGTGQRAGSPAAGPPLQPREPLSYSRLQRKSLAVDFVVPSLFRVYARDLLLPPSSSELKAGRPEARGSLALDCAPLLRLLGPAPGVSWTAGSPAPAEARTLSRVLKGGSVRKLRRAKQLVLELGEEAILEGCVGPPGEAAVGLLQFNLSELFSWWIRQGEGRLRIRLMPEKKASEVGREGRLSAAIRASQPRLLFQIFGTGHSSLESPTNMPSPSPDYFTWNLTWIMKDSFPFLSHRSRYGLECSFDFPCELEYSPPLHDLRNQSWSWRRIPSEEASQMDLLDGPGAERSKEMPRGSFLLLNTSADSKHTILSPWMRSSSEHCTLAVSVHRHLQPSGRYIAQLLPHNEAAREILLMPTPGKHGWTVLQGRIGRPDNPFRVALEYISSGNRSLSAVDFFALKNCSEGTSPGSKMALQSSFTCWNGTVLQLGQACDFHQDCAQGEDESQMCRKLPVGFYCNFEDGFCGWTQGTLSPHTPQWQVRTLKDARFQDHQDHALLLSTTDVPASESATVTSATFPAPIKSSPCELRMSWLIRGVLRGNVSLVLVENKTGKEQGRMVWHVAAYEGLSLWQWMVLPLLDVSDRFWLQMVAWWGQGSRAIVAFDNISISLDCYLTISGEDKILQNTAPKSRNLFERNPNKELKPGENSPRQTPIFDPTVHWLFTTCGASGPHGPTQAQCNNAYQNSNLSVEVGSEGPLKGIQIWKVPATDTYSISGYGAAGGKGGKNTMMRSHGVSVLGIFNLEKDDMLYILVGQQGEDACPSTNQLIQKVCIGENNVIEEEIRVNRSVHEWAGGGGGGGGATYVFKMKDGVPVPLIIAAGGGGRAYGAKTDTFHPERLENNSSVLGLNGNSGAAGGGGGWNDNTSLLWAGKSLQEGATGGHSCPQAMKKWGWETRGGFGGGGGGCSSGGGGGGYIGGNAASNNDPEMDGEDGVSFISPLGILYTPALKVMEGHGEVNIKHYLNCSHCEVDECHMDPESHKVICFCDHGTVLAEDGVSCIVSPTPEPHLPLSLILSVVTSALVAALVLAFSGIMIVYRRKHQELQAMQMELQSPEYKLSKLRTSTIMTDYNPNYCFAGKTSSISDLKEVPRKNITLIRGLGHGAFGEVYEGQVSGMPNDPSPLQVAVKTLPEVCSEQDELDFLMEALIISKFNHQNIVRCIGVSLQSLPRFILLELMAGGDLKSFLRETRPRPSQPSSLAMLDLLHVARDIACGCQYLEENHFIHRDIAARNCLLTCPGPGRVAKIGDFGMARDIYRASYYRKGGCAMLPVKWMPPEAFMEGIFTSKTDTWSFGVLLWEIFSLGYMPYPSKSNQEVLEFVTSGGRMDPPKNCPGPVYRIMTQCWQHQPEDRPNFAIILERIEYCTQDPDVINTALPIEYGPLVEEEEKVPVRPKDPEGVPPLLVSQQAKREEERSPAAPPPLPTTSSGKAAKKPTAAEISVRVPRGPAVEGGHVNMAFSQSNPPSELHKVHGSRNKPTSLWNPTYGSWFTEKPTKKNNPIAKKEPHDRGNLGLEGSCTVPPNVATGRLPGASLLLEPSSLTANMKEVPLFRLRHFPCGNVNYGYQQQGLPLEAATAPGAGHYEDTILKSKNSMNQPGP
Source text: as §1, §2

Tie2 = Tie2 (Homo sapiens, UniProt Q02763); experiment: AlphaScreen kinase assay, Tie2; conditions: read-out: IC50, activity toward kinase Tie2
Chain of Tie2 (Q02763 23-1124): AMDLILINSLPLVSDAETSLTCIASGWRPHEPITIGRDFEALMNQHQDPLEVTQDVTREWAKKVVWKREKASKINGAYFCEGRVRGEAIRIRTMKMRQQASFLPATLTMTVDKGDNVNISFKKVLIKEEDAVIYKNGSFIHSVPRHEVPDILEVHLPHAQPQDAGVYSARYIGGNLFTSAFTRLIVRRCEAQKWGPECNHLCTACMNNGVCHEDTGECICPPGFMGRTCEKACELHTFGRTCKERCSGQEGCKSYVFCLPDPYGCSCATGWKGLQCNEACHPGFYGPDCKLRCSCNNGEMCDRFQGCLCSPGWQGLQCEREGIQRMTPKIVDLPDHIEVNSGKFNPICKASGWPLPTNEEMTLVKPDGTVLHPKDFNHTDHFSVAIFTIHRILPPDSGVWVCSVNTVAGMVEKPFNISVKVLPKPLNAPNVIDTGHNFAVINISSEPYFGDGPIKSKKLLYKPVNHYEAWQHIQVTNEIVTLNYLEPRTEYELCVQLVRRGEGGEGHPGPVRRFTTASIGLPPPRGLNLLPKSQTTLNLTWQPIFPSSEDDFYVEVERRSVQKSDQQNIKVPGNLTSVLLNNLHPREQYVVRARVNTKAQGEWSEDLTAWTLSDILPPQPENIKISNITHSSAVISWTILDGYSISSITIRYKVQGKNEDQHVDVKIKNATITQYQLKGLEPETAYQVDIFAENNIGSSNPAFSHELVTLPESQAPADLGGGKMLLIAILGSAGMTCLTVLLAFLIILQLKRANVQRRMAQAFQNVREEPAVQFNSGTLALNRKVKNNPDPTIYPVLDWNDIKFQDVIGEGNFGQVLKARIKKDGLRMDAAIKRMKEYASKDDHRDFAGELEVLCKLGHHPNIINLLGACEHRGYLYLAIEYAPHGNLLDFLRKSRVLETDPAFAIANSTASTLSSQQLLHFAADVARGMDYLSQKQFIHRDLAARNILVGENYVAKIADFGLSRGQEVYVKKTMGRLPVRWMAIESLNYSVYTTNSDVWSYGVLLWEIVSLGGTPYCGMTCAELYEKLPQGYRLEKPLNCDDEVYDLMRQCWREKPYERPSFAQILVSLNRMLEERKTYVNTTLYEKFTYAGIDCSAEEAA
Source text: as §1, §2

IC50 (MAP4K4): ≤ 10 µM
IC50 (Csk): ≤ 10 µM
IC50 (Brk): ≤ 10 µM
SMILES: CCCS(=O)(=O)Nc1ccc(F)c(C(=O)c2c[nH]c3ncccc23)c1F [Compound P-0007, Propane-1-sulfonic acid [2,4-difluoro-3-(1H-pyrrolo[2,3-b]pyridine-3-carbonyl)-phenyl]-amide]

IC50 (Plk1): ≤ 10 µM
SMILES: Nc1cccc(-c2ccnc3[nH]cc(C(=O)c4ccccc4F)c23)c1 [Compound P-0022]

IC50 (Erk2): ≤ 10 µM
SMILES: Cn1cc(C(F)(F)F)c(-c2ccc(S(=O)(=O)NCc3c[nH]c4ncccc34)s2)n1 [Compound P-0041]

IC50 (Plk1): ≤ 10 µM
SMILES: Cc1ccccc1C(=O)c1c[nH]c2nccc(-c3cccc(N)c3)c12 [Compound P-0044]

IC50 (Plk1): ≤ 10 µM
SMILES: Nc1cccc(-c2ccnc3[nH]cc(C(=O)c4cc(F)ccc4F)c23)c1 [Compound P-0046]

IC50 (Erk2): ≤ 10 µM
SMILES: Cc1ccc(S(=O)(=O)NCc2c[nH]c3ncccc23)cc1 [Compound P-0058]

IC50 (Plk1): ≤ 10 µM
SMILES: O=C(c1cccc(O)c1F)c1c[nH]c2ncc(Br)cc12 [Compound P-0067, (5-bromo-1H-pyrrolo[2,3-b]pyridin-3-yl)-(2-fluoro-3-hydroxy-phenyl)-methanone]

IC50 (MAP4K4): ≤ 10 µM
SMILES: Cc1c(NS(C)(=O)=O)cccc1C(=O)c1c[nH]c2ncc(-c3ccccc3)cc12 [Compound P-0082, N-[2-Methyl-3-(5-phenyl-1H-pyrrolo[2,3-b]pyridine-3-carbonyl)-phenyl]-methanesulfonamide]

IC50 (Flt3): ≤ 10 µM
IC50 (MAP4K4): ≤ 10 µM
SMILES: CCCS(=O)(=O)Nc1ccc(F)c(C(=O)c2c[nH]c3ncc(-c4cccnc4)cc23)c1F [Compound P-0088, Propane-1-sulfonic acid [2,4-difluoro-3-(5-pyridin-3-yl-1H-pyrrolo[2,3-b]pyridine-3-carbonyl)-phenyl]-amide]

IC50 (Flt3): ≤ 10 µM
SMILES: O=C(Nc1ccc(Cc2c[nH]c3ncccc23)cc1)Nc1cccc(C(F)(F)F)c1 [Compound P-0262, 1-[4-(1H-Pyrrolo[2,3-b]pyridin-3-ylmethyl)-phenyl]-3-(3-trifluoromethyl-phenyl)-urea]

IC50 (Flt3): ≤ 10 µM
SMILES: CCCS(=O)(=O)Nc1ccc(F)c(C(=O)c2c[nH]c3ncc(-c4ccccc4)cc23)c1F [Compound P-0636, Propane-1-sulfonic acid [2,4-difluoro-3-(5-phenyl-1H-pyrrolo[2,3-b]pyridine-3-carbonyl)-phenyl]-amide]

IC50 (ALK): ≤ 10 µM
IC50 (Tie2): ≤ 10 µM
IC50 (Flt3): ≤ 10 µM
IC50 (MAP4K4): ≤ 10 µM
IC50 (Csk): ≤ 10 µM
IC50 (Brk): ≤ 10 µM
SMILES: CCCS(=O)(=O)Nc1ccc(F)c(C(=O)c2c[nH]c3ncc(OC)cc23)c1F [Compound P-0806, Propane-1-sulfonic acid [2,4-difluoro-3-(5-methoxy-1H-pyrrolo[2,3-b]pyridine-3-carbonyl)-phenyl]-amide]

IC50 (ALK): ≤ 10 µM
IC50 (Tie2): ≤ 10 µM
IC50 (Flt3): ≤ 10 µM
IC50 (MAP4K4): ≤ 10 µM
SMILES: CCCC(=O)Nc1ccc(F)c(Cc2c[nH]c3ncc(-c4cccnc4)cc23)c1F [Compound P-1280]

IC50 (Flt3): ≤ 10 µM
IC50 (MAP4K4): ≤ 10 µM
IC50 (Brk): ≤ 10 µM
SMILES: CCCCNC(=O)Nc1ccc(F)c(C(=O)c2c[nH]c3ncc(-c4cccnc4)cc23)c1F [Compound P-1318, 1-Butyl-3-[2,4-difluoro-3-(5-pyridin-3-yl-1H-pyrrolo[2,3-b]pyridine-3-carbonyl)-phenyl]-urea]

IC50 (ALK): ≤ 10 µM
IC50 (Tie2): ≤ 10 µM
IC50 (Erk2): ≤ 10 µM
IC50 (Flt3): ≤ 10 µM
IC50 (MAP4K4): ≤ 10 µM
IC50 (Csk): ≤ 10 µM
IC50 (Brk): ≤ 10 µM
SMILES: COc1cccc(C(=O)c2c[nH]c3ncc(-c4cccc(NC(C)=O)c4)cc23)c1F [Compound P-1336, N-{3-[3-(2-Fluoro-3-methoxy-benzoyl)-1H-pyrrolo[2,3-b]pyridin-5-yl]-phenyl}-acetamide]

IC50 (ALK): ≤ 10 µM
IC50 (Tie2): ≤ 10 µM
IC50 (Flt3): ≤ 10 µM
IC50 (MAP4K4): ≤ 10 µM
IC50 (Csk): ≤ 10 µM
IC50 (Brk): ≤ 10 µM
SMILES: OCCOc1ccc(F)c(Cc2c[nH]c3ncc(-c4cccnc4)cc23)c1F [Compound P-1394, 2-[2,4-Difluoro-3-(5-pyridin-3-yl-1H-pyrrolo[2,3-b]pyridin-3-ylmethyl)-phenoxy]-ethanol]

IC50 (ALK): ≤ 10 µM
IC50 (Tie2): ≤ 10 µM
IC50 (Flt3): ≤ 10 µM
IC50 (MAP4K4): ≤ 10 µM
IC50 (Csk): ≤ 10 µM
SMILES: COc1cc(OC)cc(C(=O)c2c[nH]c3ncc(-c4cccc(NS(C)(=O)=O)c4)cc23)c1 [Compound P-1426, N-{3-[3-(3,5-Dimethoxy-benzoyl)-1H-pyrrolo[2,3-b]pyridin-5-yl]-phenyl}-methanesulfonamide]
